# Reference: patent US8084254B2, “Human blood brain barrier model” (Institut National de la Sante et de la Recherche Medicale …, priority 2004, dated 2011)
# How the values were obtained:
# [1] = brain perfusion of adult rats; reported values (Cisternino et al.); cited from earlier work
# [2] = test system: hCMEC/D3 monolayers; test: Transendothelial electrical resistance (TEER) of hCMEC/D3 monolayers; assay type: cell-based, human; conditions: treatment of hCMEC/D3 monolayers
# Experimental: Transendothelial electrical resistance (TEER) of hCMEC/D3 monolayers on Transwell-Clear™ filters was measured using an Endohm 12 chamber and an Endohmeter (World Precision Instruments Inc., Sarasota, Fla., USA). The baseline resistance of ECM-coated inserts was always subtracted from the resistance obtained in the presence of the endothelial cultures. Primary cultures of rat brain endothelial cells were used as control.
# [3] = molecular target: P-gp (Homo sapiens, UniProt P08183); test: Drug accumulation in hCMEC/D3 cells with P-gp inhibitor; conditions: PSC-833 10 μM
# Experimental: The plates were shaken during both preincubation and incubation periods to reduce the effect of the aqueous boundary layer on drug accumulation. The cells were rapidly washed three times with ice-cold PBS to eliminate the extracellular drug, and then lyed in 100 μl 0.1 M NaOH or 1% Triton-X100.
# [4] = test system: hCMEC/D3 cells
# Experimental: HCMEC/D3 cells were seeded on the filters at a density of 2×10^5 cells/cm^2 in normal culture medium (EGM-2). […] All plates were kept at 37° C. […] PS (clearance) is the permeability surface area product and s is the surface area of the filter (1 cm^2).
# P-gp, sequence (P08183 whole entry): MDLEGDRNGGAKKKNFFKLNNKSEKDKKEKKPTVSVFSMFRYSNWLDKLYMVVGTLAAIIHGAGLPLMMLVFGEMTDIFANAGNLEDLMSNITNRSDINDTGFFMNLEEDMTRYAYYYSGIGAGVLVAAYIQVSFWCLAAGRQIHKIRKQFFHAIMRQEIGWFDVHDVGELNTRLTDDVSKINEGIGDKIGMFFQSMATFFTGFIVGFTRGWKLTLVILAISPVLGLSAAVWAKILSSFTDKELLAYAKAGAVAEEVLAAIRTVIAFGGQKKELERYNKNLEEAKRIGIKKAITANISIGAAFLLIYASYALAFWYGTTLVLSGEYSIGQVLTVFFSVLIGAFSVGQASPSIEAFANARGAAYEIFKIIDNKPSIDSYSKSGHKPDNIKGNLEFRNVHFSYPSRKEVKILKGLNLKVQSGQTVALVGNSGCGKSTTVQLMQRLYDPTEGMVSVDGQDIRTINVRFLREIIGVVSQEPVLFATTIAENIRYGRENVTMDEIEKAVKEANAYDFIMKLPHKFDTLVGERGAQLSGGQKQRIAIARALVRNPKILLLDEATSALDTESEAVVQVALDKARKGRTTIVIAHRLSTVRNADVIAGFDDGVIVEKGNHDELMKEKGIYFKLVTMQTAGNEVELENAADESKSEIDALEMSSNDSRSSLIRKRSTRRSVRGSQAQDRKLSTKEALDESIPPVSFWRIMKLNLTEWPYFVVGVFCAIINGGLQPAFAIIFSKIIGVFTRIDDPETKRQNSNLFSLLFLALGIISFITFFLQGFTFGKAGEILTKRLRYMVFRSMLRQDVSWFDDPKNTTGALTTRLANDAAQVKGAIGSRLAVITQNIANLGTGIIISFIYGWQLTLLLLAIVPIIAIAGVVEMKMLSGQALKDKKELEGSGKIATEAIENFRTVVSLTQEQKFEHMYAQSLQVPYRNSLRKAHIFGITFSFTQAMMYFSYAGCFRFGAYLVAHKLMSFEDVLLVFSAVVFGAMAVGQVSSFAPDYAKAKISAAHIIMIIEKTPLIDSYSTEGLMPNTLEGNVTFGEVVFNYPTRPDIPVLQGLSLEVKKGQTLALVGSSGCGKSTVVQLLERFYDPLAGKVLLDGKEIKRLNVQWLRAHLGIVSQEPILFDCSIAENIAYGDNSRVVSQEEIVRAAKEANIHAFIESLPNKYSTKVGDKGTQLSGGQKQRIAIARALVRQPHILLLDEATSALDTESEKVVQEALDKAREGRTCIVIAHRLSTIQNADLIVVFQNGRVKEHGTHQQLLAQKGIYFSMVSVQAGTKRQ
Compound,In vivo Kin [1],other results
"CN1CC[C@]23c4c5ccc(O)c4O[C@H]2[C@@H](O[C@@H]2O[C@H](C(=O)O)[C@@H](O)[C@H](O)[C@H]2O)C=C[C@H]3[C@H]1C5 [M6G, morphine-6-glucuronide]",0.03 µL/s/g,
CC[C@]1(O)C[C@H]2CN(CCc3c([nH]c4ccccc34)[C@@](C(=O)OC)(c3cc4c(cc3OC)N(C=O)[C@H]3[C@@](O)(C(=O)OC)[C@H](OC(C)=O)[C@]5(CC)C=CCN6CC[C@]43[C@@H]65)C2)C1 [Vincristine],0.06 µL/s/g,
Nc1ncnc2c1nc(Sc1ccc(Cl)cc1)n2[C@@H]1O[C@@H]2COP(=O)(O)O[C@H]2[C@H]1O [chlorophenylthio-cAMP],,Effect on TEER value [2]: failed to significantly increase
CN1C(=O)CN=C(c2ccccc2)c2cc(Cl)ccc21 [Diazepam],45 µL/s/g,
C/C=C/C[C@@H](C)C(=O)[C@H]1C(=O)N[C@@H](C(C)C)C(=O)N(C)CC(=O)N(C)[C@@H](CC(C)C)C(=O)N[C@@H](C(C)C)C(=O)N(C)[C@@H](CC(C)C)C(=O)N[C@@H](C)C(=O)N[C@H](C)C(=O)N(C)[C@@H](CC(C)C)C(=O)N(C)[C@@H](CC(C)C)C(=O)N(C)[C@@H](C(C)C)C(=O)N1C [PSC-833],,[3H] daunorubicin uptake by hCMEC/D3 cells [3]: markedly increased; calcein-AM uptake by hCMEC/D3 cells ([3]; calcein-AM 10 μM): markedly increased; rhodamine 123 uptake by hCMEC/D3 cells ([3]; rhodamine 123 10 μM): markedly increased
COc1cc2c(c(OC)c1OC)-c1ccc(OC)c(=O)cc1[C@@H](NC(C)=O)CC2 [Colchicine],0.28 µL/s/g,
Lucifer Yellow,,Permeability of Lucifer Yellow across hCMEC/D3 [4]: 0.53±0.10 10^−3 cm/min
COc1cc2nc(N3CCN(C(=O)c4ccco4)CC3)nc(N)c2cc1OC [Prazosin],0.96 µL/s/g,
